Assays:
Type in all cases: cell-based
[1] = molecular target: T1, human muscarinic M1 receptor (Homo sapiens, UniProt P11229); experiment: Alphascreen Surefire phospho-ERK1/2 functional assay, M1; conditions: for EC50: CHO cells stably expressing human M1, read-out: pEC50 M1 (converted); for % Emax cf. ACh, M1: CHO cells stably expressing human M1, relative to ACh; for Emax: CHO, read-out: % Emax cf. ACh, M1, CHO cells stably expressing human M1, relative to ACh
T1 sequence (P11229 1-460): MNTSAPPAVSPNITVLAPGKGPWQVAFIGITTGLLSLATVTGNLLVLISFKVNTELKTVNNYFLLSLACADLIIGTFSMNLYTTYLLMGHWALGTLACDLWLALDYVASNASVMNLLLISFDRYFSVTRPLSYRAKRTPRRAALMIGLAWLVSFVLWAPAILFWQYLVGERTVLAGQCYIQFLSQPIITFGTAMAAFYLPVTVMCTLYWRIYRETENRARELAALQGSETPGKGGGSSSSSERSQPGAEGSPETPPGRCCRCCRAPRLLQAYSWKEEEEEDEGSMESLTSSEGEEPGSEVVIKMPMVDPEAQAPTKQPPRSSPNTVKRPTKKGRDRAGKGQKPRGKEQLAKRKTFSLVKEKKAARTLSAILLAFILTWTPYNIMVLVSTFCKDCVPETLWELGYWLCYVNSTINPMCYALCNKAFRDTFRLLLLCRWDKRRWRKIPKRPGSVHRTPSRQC
Experimental: (§1) ERK1/2 phosphorylation is a downstream consequence of both Gq/11 and Gi/o protein coupled receptor activation, making it highly suitable for the assessment of M1, M3 (Gq/11 coupled) and M2, M4 receptors (Gi/o coupled), rather than using different assay formats for different receptor subtypes. CHO cells stably expressing the human muscarinic M1, M2, M3 or M4 receptor were plated (25K/well) onto 96-well tissue culture plates in MEM-alpha+10% dialysed FBS. Once adhered, cells were serum-starved overnight. Agonist stimulation was performed by the addition of 5 μL agonist to the cells for 5 min (37° C.). Media was removed and 50 μL of lysis buffer added. […] Plates were incubated for 2 h with gentle agitation in the dark and then read on a PHERAstar plate reader.
(§2) pEC50 and Emax figures were calculated from the resulting data for each receptor subtype.

[2] = molecular target: T2, human muscarinic M3 receptor (Homo sapiens, UniProt P20309); experiment: Alphascreen Surefire phospho-ERK1/2 functional assay, M3; conditions: for % Emax cf. ACh, M3: CHO cells stably expressing human M3, relative to ACh; for EC50: CHO cells stably expressing human M3, read-out: pEC50 M3 (converted); for Emax: CHO, read-out: % Emax cf. ACh, M3, CHO cells stably expressing human M3, relative to ACh
T2 construct: expressed in transfected cells
T2 sequence (P20309 whole entry): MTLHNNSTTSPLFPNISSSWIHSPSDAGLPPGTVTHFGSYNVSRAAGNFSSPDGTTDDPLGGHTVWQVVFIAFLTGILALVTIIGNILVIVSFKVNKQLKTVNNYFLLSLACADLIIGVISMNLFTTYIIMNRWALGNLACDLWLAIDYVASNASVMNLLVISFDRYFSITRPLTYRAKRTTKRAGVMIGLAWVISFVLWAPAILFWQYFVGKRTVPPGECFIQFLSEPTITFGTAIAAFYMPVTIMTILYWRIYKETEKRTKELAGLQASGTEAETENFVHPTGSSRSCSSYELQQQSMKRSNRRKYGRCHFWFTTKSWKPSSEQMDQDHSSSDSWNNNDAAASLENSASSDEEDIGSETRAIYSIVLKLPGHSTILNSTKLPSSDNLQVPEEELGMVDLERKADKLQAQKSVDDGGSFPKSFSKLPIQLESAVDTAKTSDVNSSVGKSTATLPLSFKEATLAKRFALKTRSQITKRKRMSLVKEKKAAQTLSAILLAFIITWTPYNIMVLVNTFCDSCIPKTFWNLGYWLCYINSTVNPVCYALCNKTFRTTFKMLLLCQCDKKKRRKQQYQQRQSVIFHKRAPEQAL
Experimental: as §1, §2

[3] = molecular target: T3, human muscarinic M4 receptor (Homo sapiens, UniProt P08173); experiment: Alphascreen Surefire phospho-ERK1/2 functional assay, M4; conditions: for EC50: CHO cells stably expressing human M4, read-out: pEC50 M4 (converted); for % Emax cf. ACh, M4: CHO cells stably expressing human M4, relative to ACh; for Emax: CHO, read-out: % Emax cf. ACh, M4, CHO cells stably expressing human M4, relative to ACh
T3 construct: expressed in transfected cells
T3 sequence (P08173 1-479): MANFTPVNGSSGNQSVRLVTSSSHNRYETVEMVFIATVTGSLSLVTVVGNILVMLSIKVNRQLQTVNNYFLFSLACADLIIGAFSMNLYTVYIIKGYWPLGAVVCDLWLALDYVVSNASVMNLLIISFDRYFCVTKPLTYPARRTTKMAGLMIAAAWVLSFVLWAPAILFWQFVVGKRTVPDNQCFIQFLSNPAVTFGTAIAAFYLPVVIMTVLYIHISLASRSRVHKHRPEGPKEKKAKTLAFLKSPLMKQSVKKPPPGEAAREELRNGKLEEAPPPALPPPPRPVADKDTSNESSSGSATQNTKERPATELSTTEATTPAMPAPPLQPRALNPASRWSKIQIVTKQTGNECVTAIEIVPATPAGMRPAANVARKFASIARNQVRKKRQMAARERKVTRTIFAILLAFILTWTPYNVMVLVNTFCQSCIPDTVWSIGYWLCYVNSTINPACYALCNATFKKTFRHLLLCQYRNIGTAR
Experimental: as §1, §2

[4] = molecular target: T4, human muscarinic M2 receptor (Homo sapiens, UniProt P08172); experiment: Alphascreen Surefire phospho-ERK1/2 functional assay, M2; conditions: for EC50: CHO cells stably expressing human M2, read-out: pEC50 M2 (converted); for % Emax cf. ACh, M2: CHO cells stably expressing human M2, relative to ACh; for Emax: CHO, read-out: % Emax cf. ACh, M2, CHO cells stably expressing human M2, relative to ACh
T4 sequence (P08172 1-466): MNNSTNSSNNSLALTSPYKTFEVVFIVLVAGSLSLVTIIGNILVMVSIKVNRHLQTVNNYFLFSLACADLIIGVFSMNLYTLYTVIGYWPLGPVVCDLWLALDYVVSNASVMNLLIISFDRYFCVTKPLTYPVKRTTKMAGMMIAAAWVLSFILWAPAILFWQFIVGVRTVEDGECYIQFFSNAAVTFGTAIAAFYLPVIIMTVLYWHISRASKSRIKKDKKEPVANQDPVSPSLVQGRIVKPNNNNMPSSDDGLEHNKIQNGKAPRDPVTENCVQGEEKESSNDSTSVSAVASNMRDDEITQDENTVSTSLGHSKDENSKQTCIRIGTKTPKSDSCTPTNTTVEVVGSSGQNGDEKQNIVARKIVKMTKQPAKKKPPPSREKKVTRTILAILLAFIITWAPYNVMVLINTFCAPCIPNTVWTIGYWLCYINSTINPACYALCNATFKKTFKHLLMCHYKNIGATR
Experimental: as §1, §2

| SMILES | EC50 [1] | EC50 [3] | EC50 [4] | EC50 [2] | Emax [2] | % Emax cf. ACh, M4 [3] | Emax [4] | % Emax cf. ACh, M2 [4] | other results |
| --- | --- | --- | --- | --- | --- | --- | --- | --- | --- |
| CCOC(=O)N1CC2CCC1CC2N1CCC2(CC1)CNC(=O)C2 (single isomer, unassigned) [Example 3-1 Isomer 3, ethyl 5-(3-oxo-2,8-diazaspiro[4.5]dec-8-yl)-2-azabicyclo[2.2.2]octane-2-carboxylate] | 0.0398 µM | 0.158 µM | > 20 µM | – | – | – | – | – | % Emax cf. ACh, M1 ([1]; listed as 3-1 Isomer 3): 101%; % Emax cf. ACh, M3 ([2]; listed as 3-1 Isomer 3): 16%; % Emax cf. ACh, M4 ([3]; listed as 3-1 Isomer 3): 41%; % Emax cf. ACh, M2 ([4]; listed as 3-1 Isomer 3): 17% |
| COC(=O)N1CC2CC(N3CCC4(CC3)CNC(=O)C4)CC1C2 (single isomer, unassigned) [Example 6-1 Isomer 2] | 0.02 µM | 0.0631 µM | > 20 µM | > 20 µM | 5% | 33% | 18% | – | % Emax cf. ACh, M1 ([1]; listed as 6-1 Isomer 2): 104% |
| CCOC(=O)N1C2CCC1CC(N1CCC3(CC1)OC(=O)NC3CC)C2 (single isomer, unassigned) [Example 2-16 Isomer 1] | 0.0501 µM | 0.0794 µM | > 20 µM | > 20 µM | 9% | – | 3% | – | % Emax cf. ACh, M1 ([1]; listed as 2-16 Isomer 1): 36%; % Emax cf. ACh, M4 ([3]; listed as 2-16 Isomer 1): 19% |
| CCOC(=O)N1C2CCC1CC(N1CCC3(CC1)CC(=O)N(CC)C3)C2 (single isomer, unassigned) [Example 2-13 Isomer 2] | 0.158 µM | 0.1 µM | > 20 µM | > 20 µM | 57% | – | 11% | – | Emax [1]: 76%; Emax [3]: 49% |
| [2H]C([2H])([2H])C([2H])([2H])OC(=O)N1C2CCC1CC(N1CCC3(CC1)CNC(=O)C3)C2 (single isomer, unassigned) [Example 2-32 Isomer 2] | 0.0316 µM | 0.0501 µM | – | – | – | 48% | – | 15% | % Emax cf. ACh, M1 [1]: 77%; % Emax cf. ACh, M3 ([2]; listed as 2-32 Isomer 2): 1% |
| CCOC(=O)N1C2CCC1C(F)C(N1CCC3(CC1)CNC(=O)C3)C2 (single isomer, unassigned) [Example 2-11 Isomer 2] | 0.251 µM | 0.2 µM | > 20 µM | > 20 µM | 22% | 55% | 18% | – | % Emax cf. ACh, M1 [1]: 101% |
| CCOC(=O)N1CC2CCC1CC2N1CCC2(CC1)CNC(=O)C2 (single isomer, unassigned) [Example 3-1 Isomer 1, ethyl 5-(3-oxo-2,8-diazaspiro[4.5]dec-8-yl)-2-azabicyclo[2.2.2]octane-2-carboxylate] | 0.00126 µM | 0.00398 µM | 0.01 µM | > 20 µM | – | – | – | – | % Emax cf. ACh, M1 ([1]; listed as 3-1 Isomer 1): 111%; % Emax cf. ACh, M3 ([2]; listed as 3-1 Isomer 1): 6%; % Emax cf. ACh, M4 ([3]; listed as 3-1 Isomer 1): 61%; % Emax cf. ACh, M2 ([4]; listed as 3-1 Isomer 1): 63% |
| [2H]C([2H])(C)OC(=O)N1C2CCC1CC(N1CCC3(CC1)CNC(=O)C3)C2 (single isomer, unassigned) [Example 2-30 Isomer 2, (1,1-^2H2)ethyl 3-(3-oxo-2,8-diazaspiro[4.5]dec-8-yl)-8-azabicyclo[3.2.1]octane-8-carboxylate] | 0.0316 µM | 0.0794 µM | > 20 µM | > 20 µM | 16% | 29% | 9% | – | % Emax cf. ACh, M1 ([1]; listed as 2-30 Isomer 2): 66% |
| CCOC(=O)N1C2CCC1CC(N1CCC3(CC1)CC(=O)NC3Cc1ccccc1)C2 (single isomer, unassigned) [Example 2-10 Isomer 1] | 0.02 µM | 0.0794 µM | > 20 µM | > 20 µM | – | – | – | – | Emax [1]: 74%; % Emax cf. ACh, M3 ([2]; listed as 2-10 Isomer 1): 5%; % Emax cf. ACh, M4 ([3]; listed as 2-10 Isomer 1): 21%; % Emax cf. ACh, M2 ([4]; listed as 2-10 Isomer 1): 1% |
| CCOC(=O)N1C2CCC1CC(N1CCC3(CC1)CC(=O)NC3CC)C2 (single isomer, unassigned) [Example 2-8 Isomer 2, ethyl 3-(1-ethyl-3-oxo-2,8-diazaspiro[4.5]decan-8-yl)-8-azabicyclo [3.2.1]octane-8-carboxylate] | 0.1 µM | 0.0316 µM | – | > 20 µM | – | – | – | 6% | % Emax cf. ACh, M1 ([1]; listed as 2-8 Isomer 2): 89%; % Emax cf. ACh, M3 ([2]; listed as 2-8 Isomer 2): 12%; % Emax cf. ACh, M4 ([3]; listed as 2-8 Isomer 2): 59% |
| CCOC(=O)N1C2CCCC1CC(N1CCC3(CC1)CNC(=O)C3)C2 (single isomer, unassigned) [Example 5-1 Isomer 2, ethyl 3-(3-oxo-2,8-diazaspiro[4.5]dec-8-yl)-9-azabicyclo[3.3.1]nonane-9-carboxylate] | 0.158 µM | > 20 µM | > 20 µM | – | – | – | – | 14% | % Emax cf. ACh, M1 ([1]; listed as 5-1 Isomer 2): 77%; % Emax cf. ACh, M3 [2]: 6%; % Emax cf. ACh, M4 ([3]; listed as 5-1 Isomer 2): 8% |
| CCCC1NC(=O)CC12CCN(C1CC3CCC(C1)N3C(=O)OCC)CC2 (single isomer, unassigned) [Example 2-9 Isomer 1] | 0.00501 µM | 0.00251 µM | > 20 µM | > 20 µM | 22% | – | 2% | – | Emax [1]: 91%; Emax [3]: 78% |
| C#CCOC(=O)N1C2CCCC1CC(N1CCC3(CC1)CNC(=O)C3)C2 (single isomer, unassigned) [Example 5-2 Isomer 2, prop-2-yn-1-yl 3-(3-oxo-2,8-diazaspiro[4.5]dec-8-yl)-9-azabicyclo[3.3.1]nonane-9-carboxylate] | – | 0.0631 µM | – | – | – | 20% | – | 3% | % Emax cf. ACh, M1 ([1]; listed as 5-2 Isomer 2): 48%; % Emax cf. ACh, M3 ([2]; listed as 5-2 Isomer 2): 4% |

Source: patent US12202843B2, “Muscarinic receptor agonists” (Nxera Pharma UK Limited, priority 2014, dated 2025)
